This is an account of results in patent US8394969B2, “Cyclic benzimidazole derivatives useful as anti-diabetic agents” (Merck Sharp & Dohme Corp., priority 2008, dated 2013).

The target in the experiment is recombinant human AMPK complex 1 (containing α1β1γ1) (Homo sapiens, UniProt Q13131+Q9Y478). In words: […] (in vitro AMPK activation assay). The note with it: for Emax: basal activity subtracted; for EC50: read-out: EC50. The format is biochemical. As to the method:
Recombinant viruses were generated by cotransfection of AMPK/pBacPak9 clones with Baculogold baculovirus DNA (Pharmingen) in spodoptera frugiperda 21 cells according to the manufacturer's instructions. Each round of virus amplification was performed for 5 days in Grace's medium containing 10% serum. Virus that had been subjected to three rounds of amplification was used for all protein production procedures. To express the AMPK complex, sf21 cells were adapted to serum free medium (SF900 II, Invitrogen) by sequential dilution from serum containing stocks into SF900 II medium and maintained in shaker flasks at 90 rpm at 27° C. The recombinant AMPK enzyme complex was produced by triple infection, one recombinant virus for each of the subunits, in sf21 cells under serum free conditions. […] Cells were harvested by centrifugation at 10,000×g for 15 minutes after 72 hours of infection with viruses. The insect cell pellet from 2 liters of culture was resuspended in 50 ml lysis buffer (20 mM Tris-HCl, 50 mM NaCl, 50 mM NaF, 30 mM Na PPi, 0.25 M sucrose, 10 mM ZnCl2, 2 mM DTT, 0.4 mg/ml digitonin) and subjected to two cycles of freeze-thaw lysis in a dry-ice ethanol bath. Insoluble material was removed by centrifugation at 10,000×g and the supernatant was fractionated with use of polyethylene glycol (PEG).
The total in vitro AMPK activation assay volume is 50 μl in a 96-well plate. […] The reaction was initiated with addition of the enzyme. After 30-minute incubation at 30° C., the reaction was stopped by addition of 80 μl 1% H3PO4. Aliquots (100 μl) were transferred to 96-well MultiScreen plates (MAPHNOB50; Millipore Corp., Bedford, Mass., USA). The plate was washed three times with 1% H3PO4 followed by detection in a Top-count. The counts per minute from the basal activity (the reaction without activator) was subtracted from each well and the data were expressed as % maximum AMP activation followed by EC50 calculation.

The mark [1] stands for this setting: recombinant human AMPK complex 1 (α1β1γ1), read-out: % Maximum AMP Activation of human AMPK Complex 1.
Where [2] appears, read: read-out: % Maximum AMP Activation of human AMPK Complex 1, recombinant human AMPK complex 1 (α1β1γ1).
The mark [3] stands for this setting: recombinant human AMPK complex 1 (α1β1γ1).

SMILES strings stand for the structures. Structures can show the parent of a compound that is named as a salt. Where two headings read alike, the source gives them in different places. Where only a bound is given, the exact number is not on record here.

recombinant human AMPK complex 1 (containing α1β1γ1), sequence (Q13131 whole entry): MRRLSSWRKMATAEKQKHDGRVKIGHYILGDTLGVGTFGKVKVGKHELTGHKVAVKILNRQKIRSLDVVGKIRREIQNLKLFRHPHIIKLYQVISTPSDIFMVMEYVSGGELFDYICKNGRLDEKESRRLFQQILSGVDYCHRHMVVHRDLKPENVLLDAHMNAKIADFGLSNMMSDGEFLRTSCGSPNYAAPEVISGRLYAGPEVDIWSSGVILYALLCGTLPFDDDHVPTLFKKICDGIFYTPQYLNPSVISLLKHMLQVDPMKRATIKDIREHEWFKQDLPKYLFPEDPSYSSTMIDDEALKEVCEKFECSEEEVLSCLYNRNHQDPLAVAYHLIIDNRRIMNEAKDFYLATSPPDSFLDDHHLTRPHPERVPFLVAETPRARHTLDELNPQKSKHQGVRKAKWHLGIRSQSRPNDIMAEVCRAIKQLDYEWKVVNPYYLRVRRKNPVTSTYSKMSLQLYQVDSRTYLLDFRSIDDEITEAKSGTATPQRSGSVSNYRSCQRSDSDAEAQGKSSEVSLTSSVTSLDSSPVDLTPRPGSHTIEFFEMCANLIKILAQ
recombinant human AMPK complex 1 (containing α1β1γ1), sequence (Q9Y478 whole entry): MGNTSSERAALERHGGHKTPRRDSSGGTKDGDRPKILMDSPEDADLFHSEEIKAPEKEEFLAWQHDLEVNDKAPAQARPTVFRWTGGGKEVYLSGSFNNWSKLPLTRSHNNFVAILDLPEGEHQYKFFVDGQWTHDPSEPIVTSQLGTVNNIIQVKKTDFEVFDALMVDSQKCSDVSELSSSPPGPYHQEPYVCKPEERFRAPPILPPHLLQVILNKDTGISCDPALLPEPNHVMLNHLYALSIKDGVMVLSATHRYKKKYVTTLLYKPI
recombinant human AMPK complex 1 (containing α1β1γ1), sequence (P54619 whole entry partner): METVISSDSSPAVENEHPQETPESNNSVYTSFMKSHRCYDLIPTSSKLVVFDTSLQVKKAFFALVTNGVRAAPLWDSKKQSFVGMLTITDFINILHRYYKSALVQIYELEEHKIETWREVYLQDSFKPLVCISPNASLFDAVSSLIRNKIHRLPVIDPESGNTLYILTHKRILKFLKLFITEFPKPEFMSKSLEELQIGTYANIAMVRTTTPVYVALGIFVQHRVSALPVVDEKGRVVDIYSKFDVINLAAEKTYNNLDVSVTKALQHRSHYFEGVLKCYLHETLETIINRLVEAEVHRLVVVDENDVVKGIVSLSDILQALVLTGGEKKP

In the case of `O=C(O)c1cncc(Oc2nc3cc(-c4ccc(-c5ccccc5)cc4)c(Cl)cc3[nH]2)c1` [Example 34, 5-(5-Biphenyl-4-yl-6-chloro-1H-benzoimidazol-2-yloxy)-nicotinic acid], under setting [1], the Emax was over 80%.

On to `O=C(O)c1cc(O)cc(Oc2nc3cc(-c4ccc(-c5ccccc5)cc4)c(Cl)cc3[nH]2)c1` [Example 35, 3-(5-Biphenyl-4-yl-6-chloro-1H-benzoimidazol-2-yloxy)-5-hydroxy-benzoic acid], for which the Emax under setting [1] is over 80%.

`O=C(O)c1ccc(Oc2nc3cc(-c4ccc(-c5ccccc5)cc4)c(Cl)cc3[nH]2)cc1C(=O)O` [Example 36, 4-(5-Biphenyl-4-yl-6-chloro-1H-benzoimidazol-2-yloxy)-phthalic acid]: under setting [1], the Emax is over 80%.

Turning to `OCc1cccc(Oc2nc3cc(-c4ccc(-c5ccccc5)cc4)c(Cl)cc3[nH]2)c1` [Example 37, [3-(5-Biphenyl-4-yl-6-chloro-1H-benzoimidazol-2-yloxy)-phenyl]-methanol], under setting [1], the Emax was over 80%.

`O=C(O)c1ccc(Oc2nc3cc(-c4ccc(-c5ccccc5)cc4)c(Cl)cc3[nH]2)cc1` [Example 38, 4-(5-Biphenyl-4-yl-6-chloro-1H-benzoimidazol-2-yloxy)-benzoic acid]: the Emax under setting [1] was over 80%.

Consider `O=C(O)c1ccc(Oc2nc3cc(-c4ccc(-c5ccccc5)cc4)c(Cl)cc3[nH]2)cc1Cl` [Example 39, 4-(5-Biphenyl-4-yl-6-chloro-1H-benzoimidazol-2-yloxy)-2-chloro-benzoic acid], for which the Emax under setting [1] is over 80%.

Regarding `O=C(O)Cn1nnc(-c2cccc(Oc3nc4cc(-c5ccc(-c6ccccc6)cc5)c(Cl)cc4[nH]3)c2)n1` [Example 40, {5-[3-(5-Biphenyl-4-yl-6-chloro-1H-benzoimidazol-2-yloxy)-phenyl]-tetrazol-2-yl}-acetic acid], the Emax under setting [1] is over 80%.

Regarding `COC(=O)Cn1nnc(-c2cccc(Oc3nc4cc(-c5ccc(-c6ccccc6)cc5)c(Cl)cc4[nH]3)c2)n1` [Example 41, {5-[3-(5-Biphenyl-4-yl-6-chloro-1H-benzoimidazol-2-yloxy)-phenyl]-tetrazol-2-yl}-acetic acid methyl ester], the Emax under setting [1] is over 80%.

On to `N#Cc1cccc(Oc2nc3cc(-c4ccc(-c5ccccc5)cc4)c(Cl)cc3[nH]2)c1` [Example 42, 3-(5-Biphenyl-4-yl-6-chloro-1H-benzoimidazol-2-yloxy)-benzonitrile], for which, under setting [1], the Emax is over 80%.

As for `Cc1ccc(C#Cc2cc3nc(Oc4ccc(C)c(C(=O)O)c4)[nH]c3cc2Cl)cc1` [Example 45, 5-(6-Chloro-5-p-tolyethylnyl-1H-benzoimidazol-2-yloxy)-2-methyl-benzoic acid], under setting [1], the Emax is over 80%.

For the compound `O=c1[nH]nc(-c2cccc(Oc3nc4cc(-c5ccc(-c6ccccc6)cc5)c(Cl)cc4[nH]3)c2)o1` [Example 47, 5-[3-(5-Biphenyl-4-yl-6-chloro-1H-benzoimidazol-2-yloxy)-phenyl]-3H-[1,3,4]oxadiazol-2-one], under setting [1], the Emax is over 80%.

Consider `O=C(O)c1cc(Oc2nc3cc(C#Cc4ccccc4)c(Cl)cc3[nH]2)cc(C(=O)O)c1` [Example 48, 5-(6-Chloro-5-phenylethynyl-1H-benzoimidazol-2-yloxy)-isophthalic acid], for which the Emax under setting [1] is over 80%.

Turning to `COC(=O)c1cc(Oc2nc3cc(C#Cc4ccccc4)c(Cl)cc3[nH]2)cc(C(=O)OC)c1` [Example 49, 5-(6-Chloro-5-phenylethynyl-1H-benzoimidazol-2-yloxy)-isophthalic acid dimethyl ester], under setting [1], the Emax was over 80%.

For `Cc1cc(Oc2nc3cc(-c4ccc(-c5ccccc5)cc4)c(Cl)cc3[nH]2)cc(C(=O)O)c1` [Example 50, 3-(5-Biphenyl-4-yl-6-chloro-1H-benzoimidazol-2-yloxy)-5-methyl-benzoic acid], the Emax under setting [1] is over 80%.

Take `Cc1ccc(Oc2nc3cc(CCc4ccccc4)c(Cl)cc3[nH]2)cc1C(=O)O` [Example 51, 5-(6-Chloro-5-phenethyl-1H-benzoimidazol-2-yloxy)-2-methyl-benzoic acid]: under setting [1], the Emax was over 80%.

With `O=C(O)c1cccc(Nc2nc3cc(-c4ccc(-c5ccccc5O)cc4)c(Cl)cc3[nH]2)c1` [Example 52, 3-[6-Chloro-5-(2′-hydroxy-biphenyl-4-yl)-1H-benzoimidazol-2-ylamino]-benzoic acid], the Emax under setting [1] was over 80%.

On to `Cc1cc(Oc2nc3cc(-c4ccc(-c5ccccc5O)cc4)c(Cl)cc3[nH]2)cc(C(=O)O)c1` [Example 53, 3-[6-Chloro-5-(2′-hydroxy-biphenyl-4-yl)-1H-benzoimidazol-2-yloxy]-5-methyl-benzoic acid], for which, under setting [1], the Emax is over 80%.

Regarding `O=C(O)c1cc(Oc2nc3cc(-c4ccc(-c5ccccc5O)cc4)c(Cl)cc3[nH]2)cc(C(=O)O)c1` [Example 54, 5-[6-Chloro-5-(2′-hydroxy-biphenyl-4-yl)-1H-benzoimidazol-2-yloxy]-isophthalic acid], the Emax under setting [1] was over 80%.

Consider `O=C(O)Cn1nnnc1Sc1nc2cc(-c3ccc(-c4ccccc4)cc3)c(Cl)cc2[nH]1` [Example 55, [5-(5-biphenyl-4-yl-6-chloro-1H-benzo-imidazol-2-ylsulfanyl)-tetrazol-1-yl]-acid, ammonium salt], for which the Emax under setting [2] is over 80%.

With `O=C(O)c1cccc(Oc2nc3cc(-c4ccc(-c5ccccc5)cc4)c(Cl)cc3[nH]2)c1` [Example 56, 3-(5-biphenyl-4-yl-6-chloro-1H-benzo-imidazol-2-yloxy)-benzoic acid, ammonium salt], under setting [2], the Emax was over 80%.

In the case of `Cc1ccc(Oc2nc3cc(-c4cnn(C)c4)c(Cl)cc3[nH]2)cc1C(=O)O` [Example 57, 5-[6-Chloro-5-(1-methyl-1H-pyrazol-4-yl)-1H-benzoimidazol-2-yloxy]-2-methyl-benzoic acid], under setting [1], the Emax is over 80%.

`Cc1ccc(Oc2nc3cc(-c4ccc(-n5cccn5)cc4)c(Cl)cc3[nH]2)cc1C(=O)O` [Example 58, 5-[6-Chloro-5-(4-pyrazol-1-yl-phenyl)-1H-benzoimidazol-2-yloxy]-2-methyl-benzoic acid]: the Emax under setting [1] is over 80%.

Regarding `O=C(O)c1cc(Oc2nc3cc(-c4ccccc4O)c(Cl)cc3[nH]2)ccc1Cl` [Example 59, 2-Chloro-5-[6-chloro-5-(2-hydroxy-phenyl)-1H-benzoimidazol-2-yloxy]-benzoic acid], the Emax under setting [1] was over 80%.

Regarding `O=C(O)c1cc(Oc2nc3cc(-c4ccc(CO)cc4)c(Cl)cc3[nH]2)ccc1Cl` [Example 60, 2-Chloro-5-[6-chloro-5-(4-hydroxymethyl-phenyl)-1H-benzoimidazol-2-yloxy]-benzoic acid], the Emax under setting [1] was over 80%.

Regarding `O=C(O)c1cc(Oc2nc3cc(-c4ccccc4)c(Cl)cc3[nH]2)ccc1Cl` [Example 61, 2-Chloro-5-(6-chloro-5-phenyl-1H-benzoimidazol-2-yloxy)-benzoic acid], under setting [1], the Emax is over 80%.

For `O=C(O)c1cccc(Sc2nc3cc(-c4ccc(-c5ccccc5)cc4)c(Cl)cc3[nH]2)c1` [Example 64, 3-[(5-biphenyl-4-yl-6-chloro-1H-benizmidazol-2-yl)thio]benzoic acid], the Emax under setting [1] is over 80%.

As for `O=C(O)c1cccc(Sc2nc3cc(-c4cccs4)c(Cl)cc3[nH]2)c1` [Example 65, 3-{[6-chloro-5-(2-thienyl)-1H-benzimidazol-2-yl]thio}benzoic acid], the Emax under setting [1] is over 80%.

With `Cc1ccc(Oc2nc3cc(-c4ccc5ccccc5c4)c(Cl)cc3[nH]2)cc1C(=O)O` [Example 66, 5-{[6-chloro-5-(2-naphthyl)-1H-benzimidazol-2-yl]oxy}-2-methylbenzoic acid], under setting [1], the Emax was over 80%.

Consider `Cc1ccc(Oc2nc3cc(C#Cc4ccccc4F)c(Cl)cc3[nH]2)cc1C(=O)O` [Example 67, 5({6-chloro-5-[(2-fluorophenyl)ethynyl]-1H-benzimidazol-2-yl}oxy)-2-methylbenzoic acid], for which, under setting [3], the EC50 was found to be 3 nM.

Regarding `Cc1ccc(Oc2nc3cc(-c4ccc(-c5ccc(=O)n(C)c5)cc4)c(Cl)cc3[nH]2)cc1C(=O)O` [Example 68, 5-({6-chloro-5-[4-(1-methyl-6-oxo-1,6-dihydropyridin-3-yl)phenyl]-1H-benzimidazol-2-yl}oxy)-2-methylbenzoic acid], the EC50 under setting [3] worked out at 7 nM.

In the case of `Cc1ccc(Oc2nc3cc(C#Cc4ccc(CCO)cc4)c(Cl)cc3[nH]2)cc1C(=O)O` [Example 69, 5-{6-chloro-5-[4-(2-hydroxy-ethyl)-phenylethynyl]-1H-benzoimidazol-2-yloxy}-2-methyl-benzoic acid], the Emax under setting [1] is over 80%.

Consider `Cc1ccc(Oc2nc3cc(C#Cc4ccc(-c5cccnc5)cc4)c(Cl)cc3[nH]2)cc1C(=O)O` [Example 70, 5-[6-Chloro-5-(4-pyridin-3-yl-phenylethynyl)-1H-benzoimidazol-2-yloxy]-2-methyl-benzoic acid], for which, under setting [1], the Emax was over 80%.

In general, EC50 refers to the concentration at which the effect is half-maximal.
